The results in this text go back to PubChem BioAssay (NCI).

Some test systems named below: COLO 205 colon; DLD-1 colon; LOX IMVI melanoma; MALME-3M melanoma; MOLT-4 leukemia; OVCAR-3 ovarian; SF-295 CNS; SK-MEL-2 melanoma; UACC-257 melanoma; MDA-MB-231 breast; RXF 393 renal; SK-MEL-28 melanoma; SR leukemia.
Holding throughout (test): NCI-60 cell line screen, 48 h

SMILES strings stand for the structures.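 Exposure lasted 48 hours, with cells grown in 96-well plates and compounds tested at five concentrations. Definition used: TGI = concentration required for complete inhibition of growth.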

Consider `CC12CCC(=O)N1[C@@H](c1ccccc1)[C@@H](c1ccccc1)O2` (stereo partly specified), for which the TGI in the experiment on COLO 205 colon, with DLD-1 colon, in the experiment with LOX IMVI melanoma, in the experiment with MALME-3M melanoma, with MOLT-4 leukemia and with OVCAR-3 ovarian was above 100 µM each time. Moreover, the TGI with SF-295 CNS, in the experiment on SK-MEL-2 melanoma and with UACC-257 melanoma was above 100 µM each time.
Consider `CC(NC1=NCCO1)c1ccsc1` (stereo unspecified), for which the TGI in the experiment on COLO 205 colon worked out at 35.3 µM; with LOX IMVI melanoma it was 35 µM; with MALME-3M melanoma it was 58 µM; in the experiment on MDA-MB-231 breast, 35.6 µM; with MOLT-4 leukemia, 52.3 µM; with OVCAR-3 ovarian it was 80.3 µM. The TGI in the experiment on RXF 393 renal is 85.8 µM; in the experiment with SF-295 CNS, 39.4 µM; with SK-MEL-2 melanoma, 50.2 µM; in the experiment on SK-MEL-28 melanoma, 43 µM; in the experiment on SR leukemia, 99.6 µM; in the experiment with UACC-257 melanoma, 40.2 µM.
Take `COC(=O)NCCc1[nH]nc2c1C(=O)C=C(Nc1ccccc1OC)C2=O`: the TGI was 61.6 µM with COLO 205 colon; 69.9 µM with LOX IMVI melanoma; 28 µM with MALME-3M melanoma; 94.3 µM in the experiment with MDA-MB-231 breast; 55.1 µM in the experiment with MOLT-4 leukemia; above 100 µM with OVCAR-3 ovarian. The TGI with RXF 393 renal is above 100 µM; in the experiment with SF-295 CNS, above 100 µM; in the experiment with SK-MEL-2 melanoma it was above 100 µM; with SK-MEL-28 melanoma, 95.9 µM; with SR leukemia it was 86.1 µM; in the experiment on UACC-257 melanoma, 35.6 µM.
For the compound `C[Si](C)(C)CCOCN(C(=O)C1=CCC2(CC1)OCCO2)c1ccccc1I`, the TGI in the experiment with COLO 205 colon was above 100 µM; in the experiment with LOX IMVI melanoma, above 100 µM; with MALME-3M melanoma, 52.9 µM; in the experiment on MDA-MB-231 breast it was 56.6 µM; in the experiment with MOLT-4 leukemia, 98.7 µM; in the experiment with OVCAR-3 ovarian, 38.9 µM. Further, the TGI was 35.4 µM in the experiment on RXF 393 renal; 32 µM with SF-295 CNS; 32.6 µM in the experiment on SK-MEL-2 melanoma; 42.9 µM with SK-MEL-28 melanoma; above 100 µM in the experiment on SR leukemia; 54.3 µM in the experiment on UACC-257 melanoma.
Take `CN1CC=C(C#CC(C)(C)O)CC1`: the TGI in the experiment on COLO 205 colon, with LOX IMVI melanoma, in the experiment on MALME-3M melanoma, in the experiment on MDA-MB-231 breast, with MOLT-4 leukemia and in the experiment on OVCAR-3 ovarian was above 37.5 µM throughout. Further, the TGI in the experiment on RXF 393 renal, with SF-295 CNS, in the experiment with SK-MEL-2 melanoma, with SK-MEL-28 melanoma, in the experiment with SR leukemia and in the experiment with UACC-257 melanoma was above 37.5 µM throughout.
In the case of `CCc1n[nH]c(=O)n1-n1c(C)ccc1C`, the TGI in the experiment with COLO 205 colon, in the experiment with LOX IMVI melanoma, in the experiment on MALME-3M melanoma, in the experiment on MDA-MB-231 breast, in the experiment on MOLT-4 leukemia and in the experiment on OVCAR-3 ovarian was above 100 µM throughout. Besides, the TGI in the experiment on RXF 393 renal, with SF-295 CNS, in the experiment with SK-MEL-2 melanoma, with SK-MEL-28 melanoma, with SR leukemia and with UACC-257 melanoma was above 100 µM in each case.
Consider `O=C(NCCc1ccccn1)c1ccc2cc(C(=O)N3CC(CCl)c4ccc([N+](=O)[O-])cc43)[nH]c2c1` (stereo unspecified), for which the TGI was above 100 µM with COLO 205 colon; above 100 µM in the experiment with LOX IMVI melanoma; above 100 µM in the experiment with MALME-3M melanoma; above 66.8 µM with MDA-MB-231 breast; above 100 µM in the experiment with MOLT-4 leukemia; 28.2 µM with OVCAR-3 ovarian. The TGI is 60.3 µM in the experiment with RXF 393 renal; above 68.5 µM in the experiment on SF-295 CNS; above 100 µM in the experiment on SK-MEL-2 melanoma; above 100 µM with SK-MEL-28 melanoma; above 100 µM in the experiment with SR leukemia; above 100 µM in the experiment with UACC-257 melanoma.
For `O=C(O)CCC1C(=O)C2CCN1CC2` (stereo unspecified), the TGI in the experiment with COLO 205 colon, in the experiment on LOX IMVI melanoma, with MALME-3M melanoma, with MDA-MB-231 breast, in the experiment on MOLT-4 leukemia and in the experiment with OVCAR-3 ovarian was above 100 µM throughout. Further, the TGI in the experiment with RXF 393 renal, in the experiment with SF-295 CNS, in the experiment with SK-MEL-2 melanoma, with SK-MEL-28 melanoma, in the experiment with SR leukemia and with UACC-257 melanoma was above 100 µM in each case.
With `C=CC(=O)C#Cc1cnc(OC)nc1OC`, the TGI in the experiment with COLO 205 colon was determined as 13.3 µM; in the experiment with LOX IMVI melanoma, 20.5 µM; in the experiment on MALME-3M melanoma it was 53.3 µM; in the experiment on MDA-MB-231 breast it was 38.1 µM; in the experiment with MOLT-4 leukemia, 4.13 µM; in the experiment on OVCAR-3 ovarian, 33.7 µM. Besides, the TGI in the experiment on RXF 393 renal was above 66.2 µM; with SF-295 CNS it was above 100 µM; with SK-MEL-2 melanoma, 59.7 µM; in the experiment with SK-MEL-28 melanoma, above 47 µM; in the experiment with SR leukemia it was 6.15 µM; with UACC-257 melanoma it was 20.3 µM.
`O=c1c2ccccc2nc(-c2ccccc2)n1/N=C/c1ccccc1[N+](=O)[O-]`: the TGI is above 100 µM with COLO 205 colon; above 100 µM in the experiment on LOX IMVI melanoma; above 100 µM with MALME-3M melanoma; above 72.8 µM in the experiment on MDA-MB-231 breast; above 100 µM in the experiment with MOLT-4 leukemia; above 100 µM in the experiment with OVCAR-3 ovarian. For the same compound, the TGI in the experiment on RXF 393 renal is 80.4 µM; in the experiment with SF-295 CNS, above 83.3 µM; in the experiment with SK-MEL-2 melanoma it was above 100 µM; in the experiment on SK-MEL-28 melanoma, above 100 µM; in the experiment with SR leukemia, above 100 µM; with UACC-257 melanoma it was above 100 µM.
Regarding `CSc1ccccc1NC1=NCCO1`, the TGI with COLO 205 colon, in the experiment on LOX IMVI melanoma, with MALME-3M melanoma, with MDA-MB-231 breast, with MOLT-4 leukemia and in the experiment on OVCAR-3 ovarian was above 100 µM throughout. For the same compound, the TGI in the experiment with RXF 393 renal, in the experiment with SF-295 CNS, with SK-MEL-2 melanoma, in the experiment on SK-MEL-28 melanoma, in the experiment with SR leukemia and in the experiment on UACC-257 melanoma was above 100 µM throughout.
`COC(=O)C1=C(C)NC(CF)=C(C(=O)OC)C1c1cccc2c(=O)c3ccccc3oc12` (stereo unspecified): the TGI was 22.8 µM in the experiment with COLO 205 colon; above 100 µM in the experiment on LOX IMVI melanoma; 83.6 µM in the experiment with MALME-3M melanoma; above 100 µM in the experiment with MDA-MB-231 breast; above 100 µM in the experiment with MOLT-4 leukemia; 66.8 µM with OVCAR-3 ovarian. Further, the TGI in the experiment with RXF 393 renal is above 100 µM; in the experiment on SF-295 CNS it was 22.7 µM; in the experiment with SK-MEL-2 melanoma, above 100 µM; in the experiment on SK-MEL-28 melanoma it was above 100 µM; in the experiment with SR leukemia, above 100 µM; with UACC-257 melanoma, above 100 µM.
`O=C(CNc1ccc([N+](=O)[O-])cc1)Nn1c(-c2ccccc2)nc2ccccc2c1=O`: the TGI in the experiment with COLO 205 colon worked out at 5.31 µM; in the experiment with LOX IMVI melanoma, 2.23 µM; with MALME-3M melanoma, 4.82 µM; with MDA-MB-231 breast, 9.4 µM; with MOLT-4 leukemia, 10.6 µM; with OVCAR-3 ovarian, 20.4 µM. For the same compound, the TGI in the experiment with RXF 393 renal is 8.84 µM; in the experiment with SF-295 CNS, 29.8 µM; in the experiment on SK-MEL-2 melanoma, 8.37 µM; with SK-MEL-28 melanoma, 10.8 µM; in the experiment on SR leukemia, above 37.4 µM; in the experiment on UACC-257 melanoma it was 36.7 µM.
`CC(=O)n1nc(-c2[nH]c(C)c(-c3nn(C(C)=O)c(=S)o3)c2C)oc1=S`: the TGI was above 100 µM in the experiment on COLO 205 colon; above 100 µM in the experiment on LOX IMVI melanoma; above 96.6 µM in the experiment with MALME-3M melanoma; above 100 µM in the experiment with MDA-MB-231 breast; above 100 µM with MOLT-4 leukemia; above 100 µM with OVCAR-3 ovarian. Besides, the TGI with RXF 393 renal, with SF-295 CNS, in the experiment on SK-MEL-2 melanoma, in the experiment with SK-MEL-28 melanoma, with SR leukemia and with UACC-257 melanoma was above 100 µM throughout.
As for `OC(Cc1cnnc2ccccc12)C(Cl)(Cl)Cl` (stereo unspecified), the TGI in the experiment with COLO 205 colon, in the experiment on LOX IMVI melanoma, in the experiment on MALME-3M melanoma, with MDA-MB-231 breast, in the experiment with MOLT-4 leukemia and with OVCAR-3 ovarian was above 10 µM throughout. Also, the TGI with RXF 393 renal, with SF-295 CNS, in the experiment on SK-MEL-2 melanoma, in the experiment with SK-MEL-28 melanoma, with SR leukemia and in the experiment with UACC-257 melanoma was above 10 µM each time.
`NC(=S)NN=Cc1ccccc1OCc1cccc(COc2ccccc2C=NNC(N)=S)n1`: the TGI with COLO 205 colon is above 100 µM; in the experiment with LOX IMVI melanoma, above 100 µM; in the experiment with MALME-3M melanoma, above 100 µM; in the experiment on MDA-MB-231 breast, 22.3 µM; with MOLT-4 leukemia, above 100 µM; with OVCAR-3 ovarian it was above 100 µM. Besides, the TGI in the experiment on RXF 393 renal is 10.9 µM; in the experiment with SF-295 CNS, 20 µM; in the experiment on SK-MEL-2 melanoma, 33.7 µM; with SK-MEL-28 melanoma, above 100 µM; with SR leukemia it was above 100 µM; in the experiment on UACC-257 melanoma, above 100 µM.
Take `O=[N+]([O-])c1ccccc1S(=O)(=O)c1cccc2c1NCCC2`: the TGI in the experiment with COLO 205 colon, in the experiment with LOX IMVI melanoma, in the experiment with MALME-3M melanoma, with MDA-MB-231 breast, in the experiment on MOLT-4 leukemia and with OVCAR-3 ovarian was above 100 µM each time. Moreover, the TGI in the experiment on RXF 393 renal is above 100 µM; with SF-295 CNS, above 100 µM; in the experiment on SK-MEL-2 melanoma, above 100 µM; in the experiment with SK-MEL-28 melanoma, above 100 µM; with SR leukemia it was above 100 µM; in the experiment with UACC-257 melanoma, 63.2 µM.
